Results published in patent US20230382924A1, “MODULATORS OF CYSTIC FIBROSIS TRANSMEMBRANE CONDUCTANCE REGULATOR” (VERTEX PHARMACEUTICALS INCORPORATED, priority 2020, published 2023).
Where two headings read alike, the source gives them in different places.

Molecular target: CFTR (Homo sapiens, UniProt P13569)
Experiment: Membrane Potential Dye, Enteroid Assay A
Type: cell-based
Conditions: for EC50: read-out: Ent. A EC50
Procedure: Base medium (ADF+++) consisted of Advanced DMEM/Ham's F12, 2 mM Glutamax, 10 mM HEPES, […] penicillin/streptomycin.
Bath 1 Buffer consisted of 1 mM MgCl2, 160 mM NaCl, 4.5 mM KCl, 10 mM HEPES, 10 mM Glucose, 2 mM CaCl2).
Chloride Free Buffer consisted of 1 mM Magnesium Gluconate, 2 mM Calcium Gluconate, 4.5 mM Potassium Gluconate, 160 mM Sodium Gluconate, 10 mM HEPES, 10 mM Glucose.
Bath 1 Dye Solution consisted of Bath 1 Buffer, 0.04% Pluronic F127, 20 μM Methyl Oxonol, 30 μM CaCCinh-A01, 30 μM Chicago Sky Blue.
Chloride Free Dye Solution consisted of Chloride Free Buffer, 0.04% Pluronic F127, 20 μM Methyl Oxonol, 30 μM CaCCinh-A01, 30 μM Chicago Sky Blue.
3. Enteroid Cell Harvesting and Seeding
Cells were recovered in cell recovery solution, collected by centrifugation at 650 rpm for 5 min at 4° C., resuspended in TryPLE and incubated for 5 min at 37° C. Cells were then collected by centrifugation at 650 rpm for 5 min at 4° C. and resuspended in IEMM containing 10 μM ROCK inhibitor (RI).
4. Membrane Potential Dye, Enteroid Assay A
Briefly, cells were washed 5 times in Bath 1 Buffer. Bath 1 Dye Solution was added, and the cells were incubated for 25 min at room temperature. Following dye incubation, cells were washed 3 times in Chloride Free Dye Solution. Chloride transport was initiated by addition of Chloride Free Dye Stimulation Solution and the fluorescence signal was read for 15 min. […] Chloride transport was then expressed as a percentage of the chloride transport following treatment with 3 μM N-[(6-amino-2-pyridyl)sulfonyl]-6-(3-fluoro-5-isobutoxy-phenyl)-2-[(4S)-2,2,4-trimethylpyrrolidin-1-yl]pyridine-3-carboxamide, 3 μM (R)-1-(2,2-difluorobenzo[d][1,3]dioxol-5-yl)-N-(1-(2,3-dihydroxypropyl)-6-fluoro-2-(1-hydroxy-2-methylpropan-2-yl)-1H-indol-5-yl)cyclopropanecarboxamide and 300 nM acute N-[2,4-bis(1,1-dimethylethyl)-5-hydroxyphenyl]-1,4-dihydro-4-oxoquinoline-3-carboxamide triple combination control (% Activity).

Chain of CFTR (P13569 with tags, fused parts or gaps DEL508-508): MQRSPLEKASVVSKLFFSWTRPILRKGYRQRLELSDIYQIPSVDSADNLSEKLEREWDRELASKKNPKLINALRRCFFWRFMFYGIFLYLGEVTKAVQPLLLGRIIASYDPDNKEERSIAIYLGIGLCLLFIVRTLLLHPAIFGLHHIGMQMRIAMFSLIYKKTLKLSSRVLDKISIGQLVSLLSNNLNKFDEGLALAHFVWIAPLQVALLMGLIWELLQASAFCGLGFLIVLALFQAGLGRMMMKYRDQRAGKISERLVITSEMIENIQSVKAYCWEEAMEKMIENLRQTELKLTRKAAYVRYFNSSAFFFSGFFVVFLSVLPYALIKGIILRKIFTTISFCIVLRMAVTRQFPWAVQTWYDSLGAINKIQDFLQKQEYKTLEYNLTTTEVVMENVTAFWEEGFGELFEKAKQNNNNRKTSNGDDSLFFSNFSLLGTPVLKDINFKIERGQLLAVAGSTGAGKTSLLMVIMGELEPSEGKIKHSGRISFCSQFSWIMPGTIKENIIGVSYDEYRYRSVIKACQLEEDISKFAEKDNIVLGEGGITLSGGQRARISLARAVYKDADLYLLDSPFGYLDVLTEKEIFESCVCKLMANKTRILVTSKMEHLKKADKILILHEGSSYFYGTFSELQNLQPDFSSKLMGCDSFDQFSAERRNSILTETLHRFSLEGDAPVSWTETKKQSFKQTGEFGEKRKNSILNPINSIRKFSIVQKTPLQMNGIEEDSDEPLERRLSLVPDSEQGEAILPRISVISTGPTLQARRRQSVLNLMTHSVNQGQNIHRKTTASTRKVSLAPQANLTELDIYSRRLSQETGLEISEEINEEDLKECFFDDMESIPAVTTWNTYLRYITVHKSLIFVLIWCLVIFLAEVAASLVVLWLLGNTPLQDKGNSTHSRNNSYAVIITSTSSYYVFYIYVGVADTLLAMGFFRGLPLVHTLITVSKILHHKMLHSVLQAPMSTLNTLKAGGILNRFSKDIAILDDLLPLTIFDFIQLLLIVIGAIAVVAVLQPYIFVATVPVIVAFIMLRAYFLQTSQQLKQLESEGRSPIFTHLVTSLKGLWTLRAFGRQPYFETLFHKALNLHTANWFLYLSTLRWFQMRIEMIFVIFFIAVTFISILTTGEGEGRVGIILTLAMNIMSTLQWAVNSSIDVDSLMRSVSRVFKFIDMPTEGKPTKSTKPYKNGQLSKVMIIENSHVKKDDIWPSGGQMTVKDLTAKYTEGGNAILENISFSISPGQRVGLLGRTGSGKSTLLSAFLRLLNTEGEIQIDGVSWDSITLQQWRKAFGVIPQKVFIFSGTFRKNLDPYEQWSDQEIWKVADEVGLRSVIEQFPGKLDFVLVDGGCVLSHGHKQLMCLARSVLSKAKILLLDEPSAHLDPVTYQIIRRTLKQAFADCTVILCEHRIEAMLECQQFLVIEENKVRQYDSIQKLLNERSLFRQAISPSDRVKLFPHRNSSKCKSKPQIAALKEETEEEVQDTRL

| Compound | Ent. A Max Activity (Table 9) | EC50 (Table 9) | Ent. A Max Activity (Table 8) | EC50 (Table 8) | also measured |
| --- | --- | --- | --- | --- | --- |
| Cc1cccc(C)c1-c1cc2nc(n1)NS(=O)(=O)c1cccc(c1)C(=O)N[C@@H](C(CC(C)C)c1ccccc1)CO2 (stereo in doubt) [Compound 182] | ++ (++ is 30-60%) | < 1000 nM |  |  |  |
| Cc1cccc(C)c1-c1cc2nc(n1)NS(=O)(=O)c1cccc(c1)C(=O)NCC(c1ccc(Cl)cc1)O2 (stereo not shown) [Compound 251] |  |  | +++ (+++ is >60%) | < 1000 nM |  |
| Cc1cccc(C)c1-c1cc2nc(n1)NS(=O)(=O)c1cccc(c1)C(=O)NC1(CCN(C(C)C)CC1)CO2 [Compound 175] | + (+ is <30%) | 3000 to 30000 nM |  |  |  |
| CC(C)C[C@@H]1COc2cc(-c3c(C(C)C)cccc3C(C)C)nc(n2)NS(=O)(=O)c2cccc(c2)C(=O)N1 [Compound 99, (11R)-6-(2,6-diisopropylphenyl)-11-isobutyl-2,2-dioxo-9-oxa-2λ^6-thia-3,5,12,19-tetrazatricyclo[12.3.1.14,8]nonadeca-1(18),4,6,8(19),14,16-hexaen-13-one] |  |  | +++ (+++ is >60%) | < 1000 nM |  |
| Cc1cccc(C)c1-c1cc2nc(n1)NS(=O)(=O)c1cccc(c1)C(=O)N[C@@H]1CN(C(C)C)CC[C@H]1O2 [Compound 373] | +++ (+++ is >60%) | 1000 to 3000 nM |  |  |  |
| Cc1cccc(C)c1-c1cc2nc(n1)NS(=O)(=O)c1cccc(c1)C(=O)NCC1(CCN(CCc3ccccc3)CC1)CO2 [Compound 444] |  |  |  |  | Ent. A Max Activity (Enteroid Assay A): ++ (++ is 30-60%); EC50 (Enteroid Assay A): 3000 to 30000 nM |
| Cc1cccc(C)c1-c1cc2nc(n1)NS(=O)(=O)c1cccc(c1)C(=O)N[C@@H]1CCN(Cc3ccccc3)C[C@H]1O2 (stereo in doubt) [Compound 382] | +++ (+++ is >60%) | < 1000 nM |  |  |  |
| Cc1cc(C(C)(C)C)ccc1C1CNC(=O)c2cccc(c2)S(=O)(=O)Nc2nc(cc(-c3c(C)cccc3C)n2)O1 (stereo not shown) [Compound 157] |  |  | +++ (+++ is >60%) | < 1000 nM |  |
| Cc1cccc(C)c1-c1cc2nc(n1)NS(=O)(=O)c1cccc(c1)C(=O)NCC1(CCN(Cc3cccc(OC(F)(F)F)c3F)CC1)CO2 [Compound 431] |  |  |  |  | Ent. A Max Activity (Enteroid Assay A): ++ (++ is 30-60%); EC50 (Enteroid Assay A): < 1000 nM |
| Cc1cccc(C)c1-c1cc2nc(n1)NS(=O)(=O)c1cccc(c1)C(=O)NC[C@@H](c1ccc(C(C)(F)F)cc1)O2 (stereo in doubt) [Compound 400] |  |  | + (+ is <30%) | 1000 to 3000 nM |  |
| Cc1cccc(C)c1-c1cc2nc(n1)NS(=O)(=O)c1cccc(c1)C(=O)NCC1(CCN(C(=O)C3CSCCN3C(=O)OC(C)(C)C)CC1)CO2 (stereo not shown) [Compound 471] |  |  |  |  | Ent. A Max Activity (Enteroid Assay A): ++ (++ is 30-60%) |
| Cc1cccc(C)c1-c1cc2nc(n1)NS(=O)(=O)c1cccc(c1)C(=O)NC(CCC1CCOCC1)CO2 (stereo not shown) [Compound 186] |  |  | +++ (+++ is >60%) | 3000 to 30000 nM |  |
| COc1cc(Cc2cccc(C)c2-c2cc3nc(n2)NS(=O)(=O)c2cccc(c2)C(=O)N[C@H](CC(C)C)CO3)cc(OC)c1 [Compound 167] | +++ (+++ is >60%) | < 1000 nM |  |  |  |
| Cc1cccc(C)c1-c1cc2nc(n1)NS(=O)(=O)c1cccc(c1)C(=O)N[C@@H]1CCN(C(=O)OC(C)(C)C)C[C@H]1O2 (single isomer, unassigned) [Compound 88, tert-Butyl 20-(2,6-dimethylphenyl)-10,16,16-trioxo-2-oxa-16λ^6-thia-5,9,17,19,22-pentaazatetracyclo[16.3.1.111,15.03,8]tricosa-1(21),11(23),12,14,18(22),19-hexaene-5-carboxylate] | + (+ is <30%) |  |  |  |  |
| COc1cccc(C)c1-c1cc2nc(n1)NS(=O)(=O)c1cccc(c1)C(=O)N[C@H](CC1CCCCC1)CO2 [Compound 303] |  |  | + (+ is <30%) | < 1000 nM |  |
| Cc1cccc(C)c1-c1cc2nc(n1)NS(=O)(=O)c1cccc(c1)CN[C@H](CC1CCCCC1)CO2 [Compound 286] |  |  | + (+ is <30%) | 3000 to 30000 nM |  |
| Cc1cccc(C)c1-c1cc2nc(n1)NS(=O)(=O)c1cccc(c1)C(=O)NCC(c1ccc(C[Si](C)(C)C)cc1)O2 (stereo not shown) [Compound 128] |  | < 1000 nM |  |  |  |
| Cc1cccc(C)c1-c1cc2nc(n1)NS(=O)(=O)c1cncc(c1)C(=O)N[C@H](CC(C)C)CO2 [Compound 413] |  |  | +++ (+++ is >60%) | 1000 to 3000 nM |  |
| Cc1cc(C(C)(C)C)ccc1[C@H]1CNC(=O)c2cccc(c2)S(=O)(=O)Nc2nc(cc(-c3c(C)cccc3C)n2)O1 (stereo in doubt) [Compound 156] |  |  | + (+ is <30%) |  |  |
| Cc1cccc(C)c1-c1cc2nc(n1)NS(=O)(=O)c1cccc(c1)C(=O)NCC(c1ccc(OC(C)C)cc1)O2 (stereo not shown) [Compound 249] |  |  |  | < 1000 nM |  |
| CC(C)C[C@@H]1COc2cc(-c3ccnn3CC(C)C)nc(n2)NS(=O)(=O)c2cccc(c2)C(=O)N1 [Compound 102, (11R)-11-(2-Methylpropyl)-6-[1-(2-methylpropyl)-1H-pyrazol-5-yl]-9-oxa-2λ^6-thia-3,5,12,19-tetraazatricyclo[12.3.1.14,8]nonadeca-1(17),4(19),5,7,14(18),15-hexaene-2,2,13-trione] |  |  |  |  | Ent. A Max Activity (Enteroid Assay A): ++ (++ is 30-60%); EC50 (Enteroid Assay A): 3000 to 30000 nM |
| CC(C)C[C@@H]1COc2cc(-c3ccccc3C(C)C)nc(n2)NS(=O)(=O)c2cccc(c2)C(=O)N1 [Compound 345] |  |  |  |  | Ent. A Max Activity (Enteroid Assay A): +++ (+++ is >600%); EC50 (Enteroid Assay A): < 1000 nM |
| Cc1cccc(C)c1-c1cc2nc(n1)NS(=O)(=O)c1cccc(c1)C(=O)NCC(c1ccc(Br)cc1)O2 (racemic) [Compound 18, 10-(4-Bromophenyl)-6-(2,6-dimethylphenyl)-2,2-dioxo-9-oxa-2λ^6-thia-3,5,12,19-tetrazatricyclo[12.3.1.14,8]nonadeca-1(18),4(19),5,7,14,16-hexaen-13-one] |  |  | +++ (+++ is >60%) | < 1000 nM |  |
| Cc1cccc(C)c1-c1cc2nc(n1)NS(=O)(=O)c1cccc(c1)C(=O)NCC1(CCN(CC3CCCCC3)CC1)CO2 [Compound 85, 1′-(Cyclohexylmethyl)-6-(2,6-dimethylphenyl)-2,2-dioxo-spiro[9-oxa-2λ^6-thia-3,5,13,20-tetrazatricyclo[13.3.1.14,8]icosa-1(19),4(20),5,7,15,17-hexaene-11,4′-piperidine]-14-one] |  |  |  |  | Ent. A Max Activity (Enteroid Assay A): ++ (++ is 30-60%); EC50 (Enteroid Assay A): 3000 to 30000 nM |
| CC(C)C[C@@H]1COc2cc(-c3ccnn3C(C)C)nc(n2)NS(=O)(=O)c2cccc(c2)C(=O)N1 [Compound 341] |  |  |  |  | Ent. A Max Activity (Enteroid Assay A): ++ (++ is 30-60%) |
| Cc1cccc(C)c1-c1cc2nc(n1)NS(=O)(=O)c1cccc(c1)C(=O)N[C@H]1CCN(C3CC4(CCCC4)C3)C[C@H]1O2 [Compound 384] | +++ (+++ is >60%) | 1000 to 3000 nM |  |  |  |
| Cc1cc(C2CNC(=O)c3cccc(c3)S(=O)(=O)Nc3nc(cc(-c4c(C)cccc4C)n3)O2)cc2c1OC(C)(C)C2 (stereo not shown) [Compound 119] |  |  | + (+ is <30%) |  |  |
| CCC[C@H]1NC(=O)c2cccc(c2)S(=O)(=O)Nc2nc(cc(-c3c(C)cccc3C)n2)O[C@H]1c1ccc(C(C)(C)C)cc1 [Compound 226] | +++ (+++ is >60%) | < 1000 nM |  |  |  |
| Cc1cccc(C)c1-c1cc2nc(n1)NS(=O)(=O)c1cccc(c1)C(=O)N[C@H](CC1(C(F)(F)F)CC1)CO2 (stereo in doubt) [Compound 289] |  |  |  | 1000 to 3000 nM |  |
| Cc1cccc(C)c1-c1cc2nc(n1)NS(=O)(=O)c1cccc(c1)C(=O)NC1(CCN(C3CC4(CC4)C3)CC1)CO2 [Compound 174] | +++ (+++ is >60%) | 1000 to 3000 nM |  |  |  |
